From patent US20080318778A1, “Agriculture Composition Method Comprising Nitric Oxide Generating Agent” (University of Sheffield, priority 2004, published 2008)

Tests used:
grapevine cv Sultana = experiment: Spraying of dormant grapevine cuttings, onset of bud burst in growth chamber; assay type: in vivo, Vitis vinifera L; conditions: H2CN2 2.5% spray
Protocol: Cuttings of grapevine cv Sultana with three dormant buds each were collected from a vineyard located at Antumapu Experimental Station, University of Chile, by the end of May 2003 (Autumn South Hemisphere). After fungicide treatment, they were kept wrapped up with plastic for one week in a dark and cold chamber at 7° C. day/night. […] The number of buds burst was registered every day after the first bud was detected starting to growth. This moment was considered as the initiation of the bud burst.

bean cv. Orfeo INIA = experiment: Weekly spraying of field-grown bean plants, effect on yield (pods/plant, seed/plant); assay type: in vivo, Phaseolus vulgaris; conditions: sprayed every week for two months until pod setting, NaNO2 at 200 μM, AsA at 100 μM, mixture AsA/NaNO2 at 100 μM/200 μM, control sprayed with water
Protocol: Plants of bean cv Orfeo INIA were grown in rows 80 cm apart and at a density of 10 plants/m, during the 2001 Southern Spring in the Experimental Station of the Univ. of Chile, Santiago. Plants were irrigated twice a week with abundant water in order to avoid water stress at any developmental stage. Phytosanitary, weed and fertilizer conditions of the plant was controlled as recommended for commercial crop.
One month old plants were sprayed every week for a two month period, until pod setting with: NaNO2 at 200 μM; AsA at 100 μM and a mixture of AsA/NaNO2 at […]. Control plants were sprayed with water.

Compound: N#CN [cyanamide]
- strength of effect on bud burst, AsA/NaNO2 compared with cyanamide (grapevine cv Sultana): The effect was not as strong as with cyanamide

Compound: O=NO [NaNO2, sodium nitrite]
- yield (Number of pods/plant and Number of seed/plant) (bean cv. Orfeo INIA): neither AsA or NaNO2 alone had any effect on yield

Compound: O=C1O[C@H]([C@@H](O)CO)C(O)=C1O [AsA, ascorbic acid]
- yield (Number of pods/plant and Number of seed/plant) (bean cv. Orfeo INIA): neither AsA or NaNO2 alone had any effect on yield
